From the supplement of paper PMC9701192 come the findings set out here.

± gives the uncertainty stated by the source.

Assay in all cases: mass response relative to vehicle control (EMD distance of treated vs reference mass distribution minus control baseline) (% of mean reference cell mass); higher = larger drug-induced change in single-cell mass distribution (stronger response)
One assay has as its system MOLM-13. Here is the method: (§1)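 Cancer cell lines were treated in vitro with drugs at the listed doses (about 24 h; 0.25% DMSO vehicle). Single-cell buoyant mass was measured on suspended microchannel resonator instruments with CNN image curation, 2500 cells per condition. Mass response is the Earth Mover's Distance to vehicle-treated reference cells as % of mean reference mass.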

In another assay the test system is PC9. The procedure: as §1
The subject of another assay is MDA-MB-361. Here is the method:
as §1

Another assay relates to MM1S ATCC. Here is the method:
as §1

Take `Nc1ncn([C@@H]2O[C@H](CO)[C@@H](O)[C@H]2O)c(=O)n1` [5-Azacytidine]: the mass response with MOLM-13 (0.1 µM) came out at 1.27 ± 0.26; with MOLM-13 (1 µM), 10.1 ± 1.9; with MOLM-13 (10 µM), 35.2 ± 2.8; with MOLM-13 (0.0001 M), 36.45 ± 0.22.

For the compound `CN(C)C/C=C/C(=O)Nc1cc2c(Nc3ccc(F)c(Cl)c3)ncnc2cc1O[C@H]1CCOC1` [Afatinib], the mass response with PC9 (0.01 µM) came out at 13.3 ± 4; in the assay on PC9 (0.1 µM) it was 15.8 ± 1.3; with PC9 (1 µM), 19.1 ± 1.6; in the assay with PC9 (10 µM) it was 30.7 ± 4.

`Cc1nc(NC(=O)N2CCC[C@H]2C(N)=O)sc1-c1ccnc(C(C)(C)C(F)(F)F)c1` [Alpelisib]: the mass response with MDA-MB-361 (0.05 µM) came to 7.91 ± 1.6; in the assay with MDA-MB-361 (0.5 µM), 16.4 ± 0.24; with MDA-MB-361 (5 µM), 39.9 ± 5.9; in the assay with MDA-MB-361 (50 µM) it was 62.6 ± 1.8.

Regarding `COc1cc(N2CCC(N3CCN(C)CC3)CC2)ccc1Nc1ncc(Cl)c(Nc2ccccc2P(C)(C)=O)n1` [Brigatinib], the mass response in the assay on PC9 (0.1 µM) was found to be 1.59 ± 3.9; in the assay on PC9 (0.5 µM), 22.4 ± 1.5; in the assay with PC9 (1 µM) it was 33.6 ± 2.4; in the assay on PC9 (10 µM), 51.3 ± 5.4.

For the compound `O=C(O)C1(C(=O)O)CCC1.[NH2-].[NH2-].[Pt+2]` [Carboplatin], the mass response in the assay with PC9 (0.1 µM) is -0.849 ± 1.3; in the assay with PC9 (1 µM), 1.45 ± 5.4; in the assay on PC9 (10 µM) it was 11.1 ± 3.2; with PC9 (0.0001 M) it was 25.9 ± 5.4.

For the compound `CC(C)C[C@H](NC(=O)[C@H](CCc1ccccc1)NC(=O)CN1CCOCC1)C(=O)N[C@@H](Cc1ccccc1)C(=O)N[C@@H](CC(C)C)C(=O)[C@@]1(C)CO1` [Carfilzomib], the mass response is 10.7 ± 4.9 with MM1S ATCC (0.005 µM), 31 ± 2.6 in the assay on MM1S ATCC (0.05 µM), 34.7 ± 2 with MM1S ATCC (0.1 µM) and 33.4 ± 2.5 with MM1S ATCC (0.5 µM).

With `N.N.[Cl][Pt][Cl]` [Cisplatin], the mass response in the assay with MDA-MB-361 (10 µM) amounted to 3.9 ± 9.3; in the assay with MDA-MB-361 (20 µM), 2.2 ± 2.3; in the assay with MDA-MB-361 (50 µM), 4.96 ± 1.6; with MDA-MB-361 (0.0001 M), 19.4 ± 2.7.

Consider `CC1(COc2ccc3c(c2)ncn3-c2ccc3cccc(N4CCC(N)CC4)c3n2)COC1` [Crenolanib], for which the mass response in the assay with MOLM-13 (0.001 µM) was determined as 3.34 ± 2; in the assay on MOLM-13 (0.01 µM), 31 ± 1.7; with MOLM-13 (0.1 µM) it was 37.3 ± 0.76; with MOLM-13 (1 µM), 37.99 ± 0.31.

With `COc1cc2ncnc(Nc3ccc(F)c(Cl)c3)c2cc1NC(=O)/C=C/CN1CCCCC1` [Dacomitinib], the mass response with PC9 (0.5 µM) came out at 14.47 ± 0.087; in the assay with PC9 (5 µM), 25.2 ± 0.96; with PC9 (20 µM) it was 55.6 ± 1.2; in the assay on PC9 (50 µM) it was 62.57 ± 0.055.

In the case of `COc1cccc2c1C(=O)c1c(O)c3c(c(O)c1C2=O)C[C@@](O)(C(C)=O)C[C@@H]3O[C@H]1C[C@H](N)[C@H](O)[C@H](C)O1` [Daunorubicin], the mass response amounted to 3.77 ± 1.2 in the assay with MOLM-13 (0.01 µM), 22.3 ± 2.7 in the assay with MOLM-13 (0.1 µM), 31.1 ± 1.9 with MOLM-13 (1 µM) and 45.8 ± 2.6 in the assay on MOLM-13 (10 µM).

For the compound `Nc1ncn([C@H]2C[C@H](O)[C@@H](CO)O2)c(=O)n1` [Decitabine], the mass response in the assay on MOLM-13 (0.25 µM) came out at 7.58 ± 1.9; with MOLM-13 (2.5 µM) it was 9.65 ± 3.3; with MOLM-13 (25 µM) it was 9.39 ± 2.4; in the assay on MOLM-13 (0.00025 M), 8.64 ± 2.2.

As to `C[C@@H]1C[C@H]2[C@@H]3CCC4=CC(=O)C=C[C@]4(C)[C@@]3(F)[C@@H](O)C[C@]2(C)[C@@]1(O)C(=O)CO` [Dexamethasone], the mass response in the assay with MM1S ATCC (0.02 µM) amounted to 13.7 ± 1.9; in the assay on MM1S ATCC (0.2 µM) it was 14.8 ± 2.1; in the assay with MM1S ATCC (2 µM), 14.5 ± 2; with MM1S ATCC (20 µM), 13.5 ± 2.

As to `CC(=O)O[C@@]12CO[C@@H]1C[C@H](O)[C@@]1(C)C(=O)[C@H](O)C3=C(C)[C@@H](OC(=O)[C@H](O)[C@@H](NC(=O)OC(C)(C)C)c4ccccc4)C[C@@](O)([C@@H](OC(=O)c4ccccc4)[C@H]21)C3(C)C` [Docetaxel], the mass response stood at 0.63 ± 3.4 in the assay on PC9 (0.001 µM), 5.56 ± 2.2 in the assay with PC9 (0.0025 µM), 12.4 ± 1.8 with PC9 (0.005 µM) and 25.2 ± 4.1 in the assay on PC9 (0.01 µM).

With `COc1cccc2c1C(=O)c1c(O)c3c(c(O)c1C2=O)C[C@@](O)(C(=O)CO)C[C@@H]3O[C@H]1C[C@H](N)[C@H](O)[C@H](C)O1` [Doxorubicin], the mass response turned out to be 33.3 ± 6.1 with PC9 (0.15 µM), 22.9 ± 4.7 in the assay on PC9 (0.625 µM), 6.7 ± 3 in the assay on PC9 (2.5 µM) and 40.9 ± 3.2 in the assay with PC9 (10 µM).

Regarding `C#Cc1cccc(Nc2ncnc3cc(OCCOC)c(OCCOC)cc23)c1` [Erlotinib], the mass response in the assay on PC9 (0.01 µM) is 0.55 ± 1.1; with PC9 (0.1 µM), 15.4 ± 1.5; with PC9 (1 µM) it was 17.2 ± 0.41; in the assay with PC9 (10 µM), 24.6 ± 1.6.
